The test system of data set [1] is lymphocytic leukemia P388 cells. In words: Antiproliferative activity against drug-resistant tumor cells (cell count after 72 hours). Type of data set: cell-based. The procedure: (§1) Compound (I) was tested for its antiproliferative activity against lymphocytic leukemia P388 cells, adriamycin-resistant P388 cells (P388/ADM), cisplatin-resistant P388 cells (P388/CDDP), cyclophosphamide-resistant P388 cells (P388/CPM), and mitomycin C-resistant P388 cells (P388/MMC), in the manner described below.
P388 cells were suspended in an RPMI-1640 medium containing 10 % fetal calf serum, 100 units/ml penicillin, 100 µg/ml streptomycin and 20 µM 2-mercaptoethanol at a concentration of 3 x 10^4 cells/ml, and 0.1 ml of the cell suspension was put into each well of a 96-well microplate. The cells were incubated in a carbon dioxide incubator (5 % carbon dioxide) overnight at 37°C, and 0.05 ml/well of a compound (I) that had been suitably diluted with the medium was added to each well.
(§2) The cells were further incubated in the carbon dioxide incubator for 72 hours, then the culture supernatant was removed, and the number of the cells was counted using a cell counter. The number of non-treated cells was compared with that of cells treated with the compound (I), from which was obtained the concentration of the chemical that inhibited 50 % of the cell growth. This is referred to as IC50.

Data set [2] concerns adriamycin-resistant P388 cells (P388/ADM). The description is as above. Type of data set: cell-based. Here is the method: as §1
(§3) P388 cells were suspended in an RPMI-1640 medium containing 10 % fetal calf serum, 100 units/ml penicillin, 100 µg/ml streptomycin and 20 µM 2-mercaptoethanol at a concentration of 3 x 10^4 cells/ml, and 0.1 ml of the cell suspension was put into each well of a 96-well microplate.
as §2
(§4) For the others, P388/ADM cells, P388/CDDP cells, P388/CPM cells and P388/MMC cells, IC50 of the compound (I) was obtained in the same manner as above.

Data set [3] deals with cisplatin-resistant P388 cells (P388/CDDP). The data set is described as above. Type of data set: cell-based. The procedure:
as §1, §3, §2, §4

The subject of data set [4] is cyclophosphamide-resistant P388 cells (P388/CPM). The data set is described as above. Type of data set: cell-based. The procedure:
as §1, §3, §2, §4

The subject of data set [5] is mitomycin C-resistant P388 cells (P388/MMC). The description is as above. Format: cell-based. Here is the method:
as §1, §3, §2, §4

Data set [6] can be described thus: Acute toxicity, intravenous administration. Conditions: mouse, in vivo, male ddY mice, 30 days after administration, probit analysis. Format: in vivo. The source says:
(§5) Compound (I) was intravenously administered to ddY mice (male; body weight, 19 to 21 g). 30 days after the administration, LD50 and LD10 were obtained through probit analysis.

For the next data set, the system named is ddY mice. The data set can be described thus: Acute toxicity, intravenous administration. As to conditions: male ddY mice; for Death Rate: 30 days. Type of data set: in vivo.
From the text: as §5

Like-named read-outs stand apart in the source and are kept apart here. Bounds are passed on as bounds.

On to `COc1cccc2c1C(=O)c1c(O)c3c(c(O)c1C2=O)C[C@@](O)(C(=O)CO)C[C@@H]3O[C@H]1C[C@H](N)[C@H](O)[C@H](C)O1` [ADM, Adriamycin], for which the IC50 amounted to 6.62 nM in data set [1] (Mus musculus, P388 cells, 72 hours incubation, read-out: IC50); 571 nM in data set [2] (Mus musculus, P388/ADM cells, 72 hours incubation, read-out: IC50); 18.1 nM in data set [3] (Mus musculus, P388/CDDP cells, 72 hours incubation, read-out: IC50); 5.79 nM in data set [4] (Mus musculus, P388/CPM cells, 72 hours incubation, read-out: IC50); 14.7 nM in data set [5] (Mus musculus, P388/MMC cells, 72 hours incubation, read-out: IC50).

`[NH2][Pt]([NH2])([Cl])[Cl]` [CDDP, Cisplatin]: the IC50 in data set [1] (P388 cells, 72 hours incubation, read-out: IC50) is 75.4 nM; in data set [2] (P388/ADM cells, 72 hours incubation, read-out: IC50), 88.3 nM; in data set [3] (P388/CDDP cells, 72 hours incubation, read-out: IC50), 4080 nM; in data set [4] (P388/CPM cells, 72 hours incubation, read-out: IC50), 504 nM; in data set [5] (P388/MMC cells, 72 hours incubation, read-out: IC50) it was 1090 nM.

`COC(=O)c1c(C)[nH]c2c(OC(=O)N3CCN(C)CC3)cc3c(c12)C(CBr)CN3C(=O)c1cc2cc(OC)c(OC)c(OC)c2[nH]1` (stereo not shown) [Compound 1]: the IC50 was found to be 8.17 nM in data set [1] (Mus musculus, P388, 72 h); 15.6 nM in data set [2] (Mus musculus, P388/ADM, 72 h); 19.8 nM in data set [3] (Mus musculus, P388, 72 h); 6.34 nM in data set [4] (Mus musculus, P388, 72 h); 15.3 nM in data set [5] (Mus musculus, P388, 72 h). The same compound yielded an LD50 at 720 h in data set [6] of 0.81 mg/kg. For the same compound, the “Mean Survival Time” value is on record as “No died” with ddY mice (Dose 0.48 mg/kg); 11.6 +/- 3.4 days +/- SD in the data set on ddY mice (Dose 0.57 mg/kg); 11.6 +/- 1.5 days +/- SD in the data set on ddY mice (Dose 0.69 mg/kg); 8.3 +/- 1.8 days +/- SD in the data set with ddY mice (Dose 0.82 mg/kg); 6.8 +/- 1.6 days +/- SD in the data set on ddY mice (Dose 0.99 mg/kg); 5.6 +/- 1.8 days +/- SD in the data set on ddY mice (Dose 1.2 mg/kg). Also, the “Death Rate” value is 0/20 in the data set with ddY mice (Dose 0.48 mg/kg); 2/20 in the data set on ddY mice (Dose 0.57 mg/kg); 3/20 in the data set on ddY mice (Dose 0.69 mg/kg); 10/20 in the data set with ddY mice (Dose 0.82 mg/kg); 17/20 in the data set on ddY mice (Dose 0.99 mg/kg); 20/20 with ddY mice (Dose 1.2 mg/kg). The same compound gave an LD10 in the data set on ddY mice (30 days after administration, probit analysis) of 0.63 mg/kg.

In the case of `CO[C@@]12[C@H](COC(N)=O)C3=C(C(=O)C(C)=C(N)C3=O)N1C[C@@H]1N[C@@H]12` [MMC, Mitomycin C], the IC50 was 40.2 nM in data set [1] (Mus musculus, P388, 72 h); 56.9 nM in data set [2] (Mus musculus, P388/ADM, 72 h); 186 nM in data set [3] (Mus musculus, P388, 72 h); 94.4 nM in data set [4] (Mus musculus, P388, 72 h); more than 300 nM in data set [5] (Mus musculus, P388, 72 h).
